A word on the pIC50: it is the negative decadic logarithm of the IC50, by convention in mol/L. In general, inhibition refers to the change of the read-out against control, counted positive when it falls.

The target in test [1] is T1, hBGT1 (Homo sapiens, UniProt P48065).
T1 construct: expressed in transfected cells; host or cells: tsA201 (transient)
T1 sequence (P48065 1-614): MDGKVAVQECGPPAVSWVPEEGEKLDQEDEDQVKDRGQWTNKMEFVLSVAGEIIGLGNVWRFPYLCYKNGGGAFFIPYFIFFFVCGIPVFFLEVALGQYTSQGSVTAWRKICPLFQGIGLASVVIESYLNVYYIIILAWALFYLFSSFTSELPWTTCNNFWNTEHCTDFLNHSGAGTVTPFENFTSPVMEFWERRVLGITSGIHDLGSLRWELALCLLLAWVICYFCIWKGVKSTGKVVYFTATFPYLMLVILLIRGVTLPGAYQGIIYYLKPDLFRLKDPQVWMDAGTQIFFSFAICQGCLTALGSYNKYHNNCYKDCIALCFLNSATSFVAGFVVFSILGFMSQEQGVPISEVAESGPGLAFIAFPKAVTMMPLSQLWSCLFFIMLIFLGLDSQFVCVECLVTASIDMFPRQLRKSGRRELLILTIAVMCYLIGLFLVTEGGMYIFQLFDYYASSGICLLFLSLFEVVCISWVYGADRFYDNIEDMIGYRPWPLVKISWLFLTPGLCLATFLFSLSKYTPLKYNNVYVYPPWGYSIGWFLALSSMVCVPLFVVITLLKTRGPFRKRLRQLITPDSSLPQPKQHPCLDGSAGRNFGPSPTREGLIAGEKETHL
Briefly: [3H]GABA uptake at hBGT1 stably expressed in CHO cells. Format: cell-based. Here is the method: (§1) The HEK-293 and Flp-In CHO cell lines stably expressing mouse (m) and human (h) GATs, respectively, have been described previously and were cultured accordingly. The tsA201 cell line was used for transient expression while the MDCK II cell line express BGT1 endogenously. Both cell lines were cultured as described. tsA201 cells were transfected with DNA constructs (8 μg per 10 cm dish if not otherwise mentioned) using 40 μL PolyFect transfection reagent according to the manufacturer’s protocol (Qiagen, Venlo, Netherlands). The DNA constructs encoding hBGT1, hGAT1-3 [36], the mutated constructs hBGT1 Q299 and hGAT3 L314Q described previously, and hBGT Y453A were synthesized and sequence validated by Genscript (NJ, USA).
(§2) The [^3H]GABA competition uptake assay was performed as previously described. A minor change, however, was introduced for uptake in MDCK II cells, in which 100 nM [^3H]GABA was used for a 15 min incubation period at 37 °C instead of 30 nM [^3H]GABA and 3 min incubation. Studies related to the inhibition curves with GABA and BPDBA at hBGT1 were obtained both with and without the presence of 10 μM ATP during the [^3H]GABA uptake assay.
(§3) The [^3H]GABA uptake data was normalized to the percentage of total uptake in the individual experiments in the presence of the lowest compound concentration or no compound present. Data presented is the pooled data of at least three independent experiments with three technical replicates. Concentration–response curves (CRCs) were fitted with GraphPad Prism (version 8.2.1, Yosemite, GraphPad Software, San Diego, CA, USA) by non-linear regression to the sigmoidal concentration response model: Y=Bottom+(Top-Bottom)/1+10^LogIC50-X∗nH where Top is the Top plateau, Bottom is the Bottom plateau, X is the logarithm of the concentration of the compound, LogIC50 is the concentration giving a response halfway between Top and Bottom,and nH is the Hill slope.
(§4) The best fit for CRCs obtained with the [^3H]GABA uptake assay was identified by the extra-sum-of-squares F test (for convenience referred to as F test).

In test [2] the target is T2, hGAT2 (Homo sapiens, UniProt Q9NSD5).
T2 construct: expressed in transfected cells
T2 sequence (Q9NSD5 1-602): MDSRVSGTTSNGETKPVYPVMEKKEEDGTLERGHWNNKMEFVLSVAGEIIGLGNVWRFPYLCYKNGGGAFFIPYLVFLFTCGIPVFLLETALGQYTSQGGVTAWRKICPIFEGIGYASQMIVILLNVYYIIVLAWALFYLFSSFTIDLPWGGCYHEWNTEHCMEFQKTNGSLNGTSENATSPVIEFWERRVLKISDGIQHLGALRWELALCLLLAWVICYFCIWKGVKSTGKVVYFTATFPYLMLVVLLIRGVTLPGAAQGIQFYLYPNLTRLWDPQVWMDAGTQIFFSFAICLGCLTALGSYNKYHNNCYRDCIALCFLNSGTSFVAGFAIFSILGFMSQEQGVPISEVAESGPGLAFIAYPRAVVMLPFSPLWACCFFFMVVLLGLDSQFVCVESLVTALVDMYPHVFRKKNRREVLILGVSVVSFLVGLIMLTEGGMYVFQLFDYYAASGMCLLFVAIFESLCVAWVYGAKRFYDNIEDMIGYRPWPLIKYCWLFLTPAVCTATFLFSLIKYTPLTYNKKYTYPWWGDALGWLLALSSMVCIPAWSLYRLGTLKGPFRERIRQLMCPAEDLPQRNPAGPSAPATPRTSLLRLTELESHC
Briefly: [3H]GABA uptake at hGAT2 stably expressed in CHO cells. Format: cell-based. Here is the method: as §1, §2, §3, §4

The target of test [3] is T3, D2 (Homo sapiens, UniProt P14416).
T3 construct: purchased NIMH Psychoactive Drug Screening Program (PDSP)
The test is described as follows: NIMH PDSP radioligand binding, D2. The note with it: radioligand [3H]N-methylspiperone, n=4.

Test [4] addresses T4, D4 (Homo sapiens, UniProt P21917).
T4 construct: purchased NIMH Psychoactive Drug Screening Program (PDSP)
The test is described as follows: NIMH PDSP radioligand binding, D4. The note with it: radioligand [3H]N-methylspiperone, n=4.

For test [5], the target named is T5, M4 (Homo sapiens, UniProt P08173).
T5 construct: purchased NIMH Psychoactive Drug Screening Program (PDSP)
Briefly: NIMH PDSP radioligand binding, M4.

pIC50: −log10 of the molar value. Entries after “also recorded” stand apart in the source; their conditions may differ. Like-named read-outs stand apart in the source and are kept apart here.

T3 sequence (P14416 whole entry): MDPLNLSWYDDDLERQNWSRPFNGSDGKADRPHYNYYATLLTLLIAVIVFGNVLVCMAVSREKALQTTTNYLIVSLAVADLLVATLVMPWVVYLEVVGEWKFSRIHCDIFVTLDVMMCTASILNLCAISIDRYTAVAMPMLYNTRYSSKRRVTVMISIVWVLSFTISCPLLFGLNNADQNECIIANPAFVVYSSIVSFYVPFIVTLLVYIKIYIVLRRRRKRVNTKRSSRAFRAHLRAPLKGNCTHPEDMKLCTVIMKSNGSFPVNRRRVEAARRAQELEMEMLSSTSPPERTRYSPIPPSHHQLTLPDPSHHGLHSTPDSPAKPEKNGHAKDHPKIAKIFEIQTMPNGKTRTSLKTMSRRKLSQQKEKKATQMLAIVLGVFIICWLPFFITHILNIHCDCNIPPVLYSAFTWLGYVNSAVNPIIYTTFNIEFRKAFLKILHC
T5 sequence (P08173 whole entry): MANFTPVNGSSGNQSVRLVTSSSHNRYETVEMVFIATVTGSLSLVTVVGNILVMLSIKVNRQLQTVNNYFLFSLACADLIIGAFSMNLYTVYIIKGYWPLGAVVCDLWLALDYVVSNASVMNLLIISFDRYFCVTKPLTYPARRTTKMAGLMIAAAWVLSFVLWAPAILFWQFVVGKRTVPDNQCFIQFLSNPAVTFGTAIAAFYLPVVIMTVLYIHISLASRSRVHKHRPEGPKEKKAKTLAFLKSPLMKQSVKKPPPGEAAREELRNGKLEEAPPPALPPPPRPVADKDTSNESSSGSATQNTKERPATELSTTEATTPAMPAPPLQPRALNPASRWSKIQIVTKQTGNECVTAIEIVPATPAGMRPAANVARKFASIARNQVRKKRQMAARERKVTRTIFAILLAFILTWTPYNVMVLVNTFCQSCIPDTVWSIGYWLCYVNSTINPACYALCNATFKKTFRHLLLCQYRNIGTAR
T4 sequence (P21917 whole entry): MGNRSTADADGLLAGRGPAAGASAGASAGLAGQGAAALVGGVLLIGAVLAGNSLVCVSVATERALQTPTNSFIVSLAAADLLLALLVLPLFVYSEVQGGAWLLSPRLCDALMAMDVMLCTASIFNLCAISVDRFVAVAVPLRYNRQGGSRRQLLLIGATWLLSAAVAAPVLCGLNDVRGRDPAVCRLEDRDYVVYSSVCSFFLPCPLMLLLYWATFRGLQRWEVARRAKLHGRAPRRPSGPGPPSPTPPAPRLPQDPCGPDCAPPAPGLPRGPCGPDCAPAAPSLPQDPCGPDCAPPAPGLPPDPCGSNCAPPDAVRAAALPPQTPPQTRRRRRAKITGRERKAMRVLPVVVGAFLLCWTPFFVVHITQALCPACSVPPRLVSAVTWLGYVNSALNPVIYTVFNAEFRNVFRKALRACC

For `Cc1ccsc1C(=CCCN(C)[C@H]1CCCC[C@H]1C(=O)O)c1sccc1C` [SBV2-114, (1R,2S)-2-((4,4-bis(3-methylthiophen-2-yl)but-3-en-yl)(methyl)amino)cyclohexanecarboxylic acid], the pIC50 in test [1] (IC50, high affinity component, biphasic fit, N=2 of four experiments, CHO) is 7.30; in test [1] (pIC50 ± S.E.M., high affinity component, biphasic fit, N=2, CHO), 7.29; in test [1] (read-out: IC50, low affinity component, biphasic fit, N=2, CHO), 3.31; in test [1] (single IC50, N=2, fit not given, CHO, read-out: IC50), 3.35; in test [2] (ambiguous fit, N=3, CHO, read-out: IC50) it was 3.28; in test [2] (biphasic fit, N=1, CHO, read-out: IC50, high affinity component), 5.48. Besides, in test [2] (read-out: IC50, low affinity component, biphasic fit, N=1, CHO), the pIC50 is 3.26. In addition, the Frac in test [1] (biphasic fit, N=2, CHO) came to 0.10; in test [2] (biphasic fit, N=1, CHO), 0.06. Also, the Fit entry in test [1] (preferred model, N=2) is reported as “Biphasic”; in test [2] (preferred model per experiment), “Biphasic; also recorded: Ambiguous”. In addition, the inhibition at 10 µM in test [3] was 12.3%; in test [4] it was -5.1%; in test [5], -5.7%.
